The values that follow come from patent US20220073475A1, “5-MEMBERED HETEROARYL COMPOUNDS CONTAINING A HYDROXAMATE MOIETY AND THEIR USE” (UNIVERSITE DE LILLE, priority 2019, published 2022).

The subject of data set [1] is TLM1 cells. Kind of data set: X-ray radiation in combination with compound, propidium iodide dead cells, ratio of corrected AUC. As to conditions: for Potency of X-ray radiations in combination with compound (in words): TLM1. Format: cell-based, canine. Here is the method: (§1) Canine melanoma TLM-1 cells are maintained in DMEM medium supplemented with GlutaMAX™, 10% fetal bovine serum, 1× Hepes and 1% penicillin-streptomycin.
TLM-1 cells were seeded with the BioTek MicroFlo™ dispenser in μClear® black 384-well plates (Greiner) at the density of 20,000 cells/mL in 50 μL. Compounds for pre-treatment were added 2 h after the seeding, using an Echo 550 (Labcyte). The next day, cells were washed five times with 40 μL media without phenol red with a plate washer (Hydrospeed, Tecan). Cells were irradiated with 4, 6, 8, 12, 16, 20 and 24 Gray (Gy). […] This step was repeated every 72 h after radiation. Plates were incubated at 37° C. and 5% CO2. […] 4 images per well were collected. Images were analyzed with Columbus software (Perkin Elmer). In this system we used predefined building blocks to measure different parameters on nuclei detected. We applied a threshold based on propidium iodide intensity in nuclei of controls to select and count dead cells. By dividing the number of dead cells by the number of nuclei detected we obtained the percentage of dead cells. AUC were determined in one experiment with triplicate incubates on percentage of cells labelled with propidium iodide and were corrected by the percentage of cells labelled with propidium iodide at 0 Gy. Ratio of AUC corrected was determined as followed: Activity=(Area of the dose-concentration curve of cytotoxic agent combined with one concentration of compound corrected by the effect of the compound alone at 0Gy)/(Area of the dose-concentration curve of radiation alone corrected by the effect of the vehicle at 0Gy).

For data set [2], the system named is TLM1 cells. As to the kind of experiment: UV-C radiation in combination with compound, ratio of % propidium iodide labelled cells. Format: cell-based, canine. As to conditions: for Potency of UV-C radiations in combination with compound (in words): TLM1. Here is the method: as §1
Plates were incubated at 37° C. and 5% CO2. […] 4 images per well were collected. Images were analyzed with Columbus software (Perkin Elmer). In this system we used predefined building blocks to measure different parameters on nuclei detected. We applied a threshold based on propidium iodide intensity in nuclei of controls to select and count dead cells. By dividing the number of dead cells by the number of nuclei detected we obtained the percentage of dead cells.

For data set [3], the system named is RPMI 8226 cells. As to the kind of experiment: Epoxomicin (EPX) in combination with compound 3, Annexin V/PI flow cytometry. Format: cell-based, human. As to conditions: RPMI 8226 (FIG. 1A), compound at 7.5 μM, 15 μM and 30 μM. Here is the method:
(§2) RPMI 8226 and MOPC315.BM cells were cultured in RPMI 1640 medium supplemented with L-glutamine, non-essential amino acids, 2-mercaptoethanol and 10% fetal calf serum.
(§3) Cells were seeded in 24-well culture plates at 150,000 cells/well/mL. […] Cells were treated with protease inhibitors for 24 and 48 hours before analysis for apoptosis and cell death by flow cytometry. The cells were centrifuged at 300×g for 5 minutes and washed with cold FACS buffer (PBS 1× with 2 mM EDTA and 0.5% BSA. Then the cells were resuspended in Annexin V binding buffer (BioLegend) at a concentration of 10^6 cells/mL, and 100 μL of each sample was transferred to a 5 mL FACS tube. 5 μL of Annexin V-FITC Ab (BioLegend) and 5 μL of propidium iodide (BioLegend) were added to each sample and incubated 15 min at RT. Finally, 400 μL of Annexin V binding buffer was added to each tube and the cells were analyzed using BD FACSCanto or BD Fortessa machines within an hour. Annexin+ but PI− cells were identified as apoptotic and Annexin+ PI+ as dead cells.

For data set [4], the system named is MOPC315.BM cells. The data set is described as above. Format: cell-based, murine. As to conditions: MOPC315.BM (FIG. 1B), compound at 7.5 μM, 15 μM and 30 μM. As to the method: as §2, §3
Data set [5] relates to OPM2 cells. Kind of data set: CFZ potency increase, ratio of CC50 of CFZ alone / with compound. The class given is cell-based, human. An outline of the steps:
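OPM2 cells (12,000/well, 0.2% DMSO) treated with compound plus carfilzomib, with NucView 488 caspase-3/7 substrate (1 μM) and Hoechst 33342, 37 °C; confocal imaging over time gives % apoptotic cells. CFZ CC50 from 4-parameter fits alone and with compound; activity = CC50 alone / CC50 with compound.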

Data set [6] relates to HeLa cells. Described as above. The class given is cell-based, human. The following applies: compound at 7.5 μM. From the text:
Human HeLa cells (uterine cervical carcinoma) are maintained in DMEM medium supplemented with GlutaMAX™, 10% fetal bovine serum and 1% penicillin-streptomycin.
(§4) We developed a cell-based, high content assay allowing the rapid detection and quantification of apoptotic cells. Caspase-3/7 activity was detected in real-time using the NucView™ 488 Caspase-3 substrate (Biotium), where the caspase-3/7 substrate peptide sequence DEVD is attached to a nucleic acid dye. The NucView™ 488 reagent crosses the plasma membrane to enter the cytoplasm, where the dye is unable to bind to DNA and remains non-fluorescent. Once the substrate has been cleaved by activated caspase-3/7 in apoptotic cells, the high-affinity DNA dye is released and migrates to the cell nucleus to stain the nucleus with a bright green fluorescence. All cell nuclei were also labeled with Hoechst 33342 (Ozyme).
(§5) For HeLa and MCF7 cells, briefly, cells were seeded in 384-microtiter well plate (1500 HeLa cells or 5000 MCF7 cells in 40 μL full medium per well) and let to attach overnight. Then the compound of the invention and the RE stressor were transferred to the cell culture plate using an Echo555 liquid handler (Labcyte) and 30 μL medium containing NucView™ and Hoechst 33342 were added. Final NucView™ 488 and Hoechst 33342 concentrations were 1 μM and 20 ng/mL, respectively. DMSO content was maintained at 0.2%. The microplates were incubated at 37° C. and 5% CO2 in an automated LiCONiC STR240 UB cell incubator, and images were acquired at various times at 405 nm and 488 nm with the high-resolution automated confocal microscope INCell 6000 (GE). Four fields per well were read with the 20× objective in a confocal mode. The BioCel workstation was managed by VWorks automation control software (Agilent).
(§6) For all cells, Columbus software (Perkin) was used for image quantification and analysis. First, Hoechst 33342 staining was used for an automated detection of nuclei, in which the mean fluorescence intensity for NucView™ 488 was quantified. Inspection of control cells at initial time was used to set a threshold level of NucView™ 488 fluorescence to separate non apoptotic cells from apoptotic cells. Finally, for each well, the result was expressed as percentage of apoptotic cells in the total cell population. CC50 values were calculated from concentration-response curves by a nonlinear regression analysis at four parameters using Excel Fit or GraphPad Prim softwares.
(§7) Activity=(% of apoptotic cells with cytotoxic agent in combination with compound of the invention)/(% of apoptotic cells with cytotoxic agent alone). • Ratio of CC50: The CC50 of the cytotoxic agent was calculated in absence and in presence of a compound of the invention.
(§8) Activity=(CC50 of agent alone)/(CC50 of agent with compound). • Ratio of AUC. Activity=(Area of the dose-concentration curve of cytotoxic agent combined with one concentration of compound)/(Area of the dose-concentration curve of cytotoxic agent alone). (Lehar J. et al, 2008 (molecular systems biology 4:215)).

The test system of data set [7] is MCF7 cells. Described as above. The class given is cell-based, human. The following applies: MCF7, compound at 15 μM. Here is the method:
Human epithelial MCF7 cells (mammary gland adenocarcinoma) are maintained in EMEM medium supplemented with GlutaMAX™, 10% fetal bovine serum, 0.01 mg insulin and 1% penicillin-streptomycin.
as §4, §5, §6, §7, §8

Turning to `O=C(C[C@@H](Cc1ccc2ccccc2c1)n1cc(CNC(=O)c2ccc(F)cc2)nn1)NO` [Compound 3, 4-Fluoro-N-[1-(R-2-hydroxycarbamoyl-1-naphthalen-2-ylmethyl-ethyl)-1H-[1,2,3]-triazol-4-ylmethyl]-benzamide], in data set [1], the “Potency of X-ray radiations in combination with compound (in words)” value is “increase the potency”. Moreover, in data set [2], the “Potency of UV-C radiations in combination with compound (in words)” value is “increase the potency”. The “Cytotoxicity of epoxomicin in combination with compound” value in data set [3] and in data set [4] was “increased” each time.

Turning to `Cc1cc(C(=O)NCc2cn([C@@H](CC(=O)NO)Cc3ccc4ccccc4c3)nn2)ccc1F` [Compound 80, 4-fluoro-N-[[1-[(1R)-3-(hydroxyamino)-1-(2-naphthylmethyl)-3-oxo-propyl]triazol-4-yl]methyl]-3-methyl-benzamide], the “Activity: ratio (CC50 of CFZ alone)/(CC50 of CFZ in combination with compound of the invention)” value worked out at 2.2 in data set [5] (OPM2, compound at 7.5 μM (Table 5)); 2.2 in data set [5] (OPM2, compound at 7.5 μM (Table 6)); 3.6 in data set [6]; 2.4 in data set [7]. In addition, the “Potency of X-ray radiations in combination with compound (in words)” value in data set [1] is given as “increase the potency”. Further, in data set [1] (TLM1, compound at 30 μM), the “Activity: ratio of corrected AUC of X-ray radiation in combination with compound / corrected AUC of X-ray radiation alone” value stood at 2.7. The “Potency of UV-C radiations in combination with compound (in words)” value in data set [2] is listed as “increase the potency”. Moreover, the “Activity: ratio of percentage of cells labelling with propidium iodide, compound vs vehicle” value in data set [2] (TLM1, 15 μM compound 24 h before and just after UV-C, 48 h after UV-C at 400 J/m^2, mean of three experiments) is 2.3.
